Laboratory results reported in patent publication US9492465B2, “Gold(I) complexes with t-butyl phosphine and dialkyl dithiocarbamate ligands” (KING FAHD UNIVERSITY OF PETROLEUM AND MINERALS, priority 2014, dated 2016).

Assays:
Assay type in all cases: cell-based
[1] = system: MCF7 (human breast cancer) cell line; assay: in vitro cytotoxicity, MTT assay, MCF7 cell line; settings: 24 h exposure, read-out: IC50 Values against MCF7
Protocol: Metal precursor and two synthesized compound (1)and compound (2) were evaluated for their in-vitro cytotoxic activity against MCF7 (human breast cancer), HeLa (human cervical cancer) and A549 (human lung carcinoma) cell lines.
(§1) The cells were seeded at 4×10^3 cells/well in 100 μL DMEM (Dulbecco's Modified Eagle's Medium) containing 10%. FBS (Fetal Bovine Serum) in 96-wells tissue culture plate and incubated for 72 h at 37° C., 5% CO2 in air and 90% relative humidity in CO2 incubator. After incubation, 100 μL of complex (0),(1)and (2) (50, 25, 12.5, 6.25 and 3.12 μg/mL), prepared in DMEM, was added to cells and the cultures were incubated for 24 h. The medium of wells was discarded and 100 μL DMEM containing MTT (3-(4,5-Dimethylthiazol-2-Yl)-2,5-Diphenyltetrazolium Bromide) (5 mg/mL) was added to the wells and incubated in CO2 incubator at 37° C. in dark for 4 h. After incubation, a purple colored formazan (artificial chromogenic dye, product of the reduction of water insoluble tetrazolium salts e.g., MMT by dehydrogenases and reductases) in the cells is produced and appeared as dark crystals in the bottom of the wells. The medium of culture was discarded from each well carefully to avoid disruption of monolayer and 100 μL of Dimethylsufoxide (DMSO) was added in each well. The solution was thoroughly mixed in the wells to dissolve the formazan crystals which ultimately result into a purple solution. The absorbance of the 96-wells plate was taken at 570 nm with Labsystems Multiskan EX-Enzyme-linked immunosorbent assay (EX-ELISA) reader against a reagent blank.
The in vitro cytotoxicity tests were evaluated for the gold(I) precursor, labeled as (0) and two synthesized complexes labeled as (1) and (2)against three human cancer cell lines, MCF7, HeLa and A549 using MTT assay. The dose dependent cytotoxic effect was obtained by the stipulated increase in concentrations of complexes (0), (1) and (2) against the fixed number of human cancer cells. […] FIG. 3 is a graph of the in vitro cytotoxic effect of series of concentrations of compound (0) on MCF7 cell line. […]

[2] = system: A549 (human lung carcinoma) cell line; assay: in vitro cytotoxicity, MTT assay, A549 cell line; settings: 24 h exposure, read-out: IC50 Values against A549
Protocol: as §1, with “After incubation, 100 μL of complex (0),(1)and (2) (50, 25, 12.5, 6.25 and 3.12 μg/mL), prepared in DMEM, was added to cells and the cultures were incubated for 24 h.” left out
(§2) The in vitro cytotoxicity tests were evaluated for the gold(I) precursor, labeled as (0) and two synthesized complexes labeled as (1) and (2)against three human cancer cell lines, MCF7, HeLa and A549 using MTT assay.

[3] = system: HeLa (human cervical cancer) cell line; assay: in vitro cytotoxicity, MTT assay, HeLa cell line; settings: for cytotoxic effects on HeLa cell line compared with Auranofin: 50 μg/mL concentration; for IC50: HeLa cell line, 24 h exposure, read-out: IC50 Values against HeLa; for IC50 / percent viability of HeLa: MTT; for percent viability of HeLa: 24 h
Protocol: as §1, with “After incubation, 100 μL of complex (0),(1)and (2) (50, 25, 12.5, 6.25 and 3.12 μg/mL), prepared in DMEM, was added to cells and the cultures were incubated for 24 h.” left out
as §2

[4] = concentration 3.12 (title μM, head iM)
[5] = concentration 6.25 (title μM, head iM)
[6] = concentration 12.5 (title μM, head iM)
[7] = concentration 25 (title μM, head iM)
[8] = concentration 50 (title μM, head iM)

CCN(CC)C(=S)[S][Au][PH](C(C)(C)C)(C(C)(C)C)C(C)(C)C [Complex (2), [Au{P(t-Bu)3}(S2CN(C2H5)2)]]
IC50 [1]: 16 µM
IC50 [2]: 19.4 µM
cytotoxic effects on HeLa cell line compared with Auranofin [3]: better than Auranofin
IC50 [3]: 3.21 µM
percent viability of HeLa [3, 4]: 53.9 ± 1.9%
percent viability of HeLa [3, 5]: 38.6 ± 1.2%
percent viability of HeLa [3, 6]: 27.9 ± 1.0%
percent viability of HeLa [3, 7]: 22.9 ± 1.2%
percent viability of HeLa [3, 8]: 9.41 ± 1.16%

CN(C)C(=S)[S][Au][PH](C(C)(C)C)(C(C)(C)C)C(C)(C)C [Complex (1), [Au{P(t-Bu)3}(S2CN(CH3)2)]]
IC50 [1]: 21.1 µM
IC50 [2]: 26.9 µM
cytotoxic effects on HeLa cell line compared with Auranofin [3]: better than Auranofin
IC50 [3]: 2.07 µM
percent viability of HeLa [3, 4]: 50.6 ± 1.5%
percent viability of HeLa [3, 5]: 34.4 ± 0.9%
percent viability of HeLa [3, 6]: 19.5 ± 1.4%
percent viability of HeLa [3, 7]: 15.3 ± 1.1%
percent viability of HeLa [3, 8]: 8.7 ± 1.2%

CC(C)(C)P(C(C)(C)C)C(C)(C)C.[Cl][Au] [Complex (0), [Au{P(t-Bu)3}(Cl)], reference compound]
IC50 [1]: 16.7 µM
IC50 [2]: 14.3 µM
IC50 [3]: 16 µM
percent viability of HeLa [3, 4]: 93.6 ± 2.4%
percent viability of HeLa [3, 5]: 89.5 ± 2.3%
percent viability of HeLa [3, 6]: 81.9 ± 1.9%
percent viability of HeLa [3, 7]: 27.3 ± 1.5%
percent viability of HeLa [3, 8]: 12.4 ± 1.1%
